Source: ChEMBL document CHEMBL1121624, “Synthesis, biological evaluation, and preliminary structure-activity considerations of a series of alkylphenols as intravenous anesthetic agents” (J Med Chem, 1980)

Experiments:
[1] = species on record: Mus musculus; experiment: Hypnotic activity was measured as dose which causes loss of righting reflex for a minimum period of 30s in 50% of mice; format: functional
[2] = species on record: Mus musculus; experiment: Duration of analgesic action in mice was determined; B = brief, < 5 min; format: functional, organism-based
[3] = Acute toxicity measured as median lethal dose in mice; Range is 120-140; format: organism-based; conditions: mouse, in vivo
[4] = species on record: Mus musculus; experiment: Speed of induction of analgesia in mice was determined; S = slow, 10-15 s; format: functional, organism-based
[5] = species on record: Mus musculus; experiment: Hypnotic activity was measured as dose which causes loss of righting reflex for a minimum period of 30s in 50% of mice; Range is 20-40; format: functional
[6] = species on record: Mus musculus; experiment: Speed of induction of analgesia in mice was determined; I = immediate, <10 s; format: functional, organism-based
[7] = species on record: Mus musculus; experiment: Hypnotic activity was measured as dose which causes loss of righting reflex for a minimum period of 30s in 50% of mice; Range is 20-30; format: functional
[8] = Acute toxicity measured as median lethal dose in mice; format: organism-based; conditions: mouse, in vivo
[9] = species on record: Mus musculus; experiment: Duration of analgesic action in mice was determined; L = long, >10; format: functional, organism-based
[10] = species on record: Mus musculus; experiment: Hypnotic activity was measured as dose which causes loss of righting reflex for a minimum period of 30s in 50% of mice; Range is 10-15; format: functional
[11] = species on record: Mus musculus; experiment: Acute toxicity measured as median lethal dose in mice; Range is 80-90; format: organism-based; conditions: in vivo
[12] = species on record: Mus musculus; experiment: Duration of analgesic action in mice was determined; M = moderate, 5-10 min; format: functional, organism-based
[13] = species on record: Mus musculus; experiment: Speed of induction of analgesia in mice was determined; VS = very slow, > 15s; format: functional, organism-based
[14] = species on record: Mus musculus; experiment: Hypnotic activity was measured as dose which causes loss of righting reflex for a minimum period of 30s in 50% of mice; Range is 30-40; format: functional
[15] = Acute toxicity measured as median lethal dose in mice; Range is 40-60; format: organism-based; conditions: mouse, in vivo
[16] = species on record: Mus musculus; experiment: Hypnotic activity was measured as dose which causes loss of righting reflex for a minimum period of 30s in 50% of mice; Range is 15-20; format: functional
[17] = species on record: Mus musculus; experiment: Hypnotic activity was measured as dose which causes loss of righting reflex for a minimum period of 30s in 50% of mice; Range is 40-60; format: functional
[18] = Acute toxicity measured as median lethal dose in mice; Range is 80-100; format: organism-based; conditions: mouse, in vivo
[19] = Acute toxicity measured as median lethal dose in mice; Range is 100-120; format: organism-based; conditions: mouse, in vivo
[20] = Acute toxicity measured as median lethal dose in mice; […]; format: organism-based; conditions: mouse, in vivo
[21] = species on record: Mus musculus; experiment: Hypnotic activity was measured as dose which causes loss of righting reflex for a minimum period of 30s in 50% of mice; Range is 10-20; format: functional
[22] = species on record: Mus musculus; experiment: Hypnotic activity was measured as dose which causes loss of righting reflex for a minimum period of 30s in 50% of mice; Range is 1-1.5; format: functional
[23] = Acute toxicity measured as median lethal dose in mice; Range is 40-45; format: organism-based; conditions: mouse, in vivo

In the case of `Cc1ccc(O)c(C(C)(C)C)c1`, the HD50 [1] is reported as 30 mg/kg.

With `CCC(C)c1cccc(C2CC2)c1O` (configuration not stated) the Duration of action [2] was “Brief duration”, the LD50 [3] was 120 mg/kg and the Speed of induction [4] was “Slow”. It also gave an HD50 [5] of 20 mg/kg.

For `CCCc1cccc(C(C)C)c1O`, the Duration of action [2] was “Brief duration”, the Speed of induction [6] was “Immediate” and the HD50 [7] was 20 mg/kg. It also gave an LD50 [8] of 80 mg/kg.

For `CCCC(C)c1cccc(C(C)C)c1O` (configuration not stated), the Speed of induction [4] was “Slow”, the LD50 [8] was 80 mg/kg and the Duration of action [9] was “Long”. For the same molecule, the HD50 [10] was 10 mg/kg.

With `CCc1cccc(C(C)CC)c1O` (configuration not stated) the Duration of action [2] was “Brief duration”, the Speed of induction [6] was “Immediate” and the LD50 [8] was 80 mg/kg. For the same molecule, the HD50 [10] was 10 mg/kg.

`CCCC(C)C1(CC)C(=O)[N-]C(=S)NC1=O.[Na+]` (stereo in doubt; form 1) [THIOPENTAL SODIUM] gave an LD50 [11] of 80 mg/kg.

With `CCCCC(C)c1cccc(CCC)c1O` (configuration not stated) the Duration of action [12] was “Moderate”, the Speed of induction [13] was “Very slow” and the LD50 [8] was 140 mg/kg. It also gave an HD50 [1] of 50 mg/kg.

Work on `CC(C)c1ccc(O)cc1` yielded an HD50 [14] of 30 mg/kg and an LD50 [15] of 40 mg/kg.

In the case of `CCCc1cccc(CCC)c1O`, the Duration of action [2] is reported as “Brief duration”, the Speed of induction [6] is reported as “Immediate” and the HD50 [7] is reported as 20 mg/kg. It also gave an LD50 [8] of 100 mg/kg.

For `CCCCCC(C)c1cccc(C)c1O` (configuration not stated), the HD50 [16] was 15 mg/kg, the Speed of induction [13] was “Very slow” and the LD50 [8] was 100 mg/kg. For the same molecule, the Duration of action [9] was “Long”.

In the case of `Cc1cccc(C(C)(C)C)c1O`, the Duration of action [2] is reported as “Brief duration”, the Speed of induction [6] is reported as “Immediate induction” and the HD50 [17] is reported as 40 mg/kg. For the same molecule, the LD50 [3] was 120 mg/kg.

In the case of `Cc1cccc(C)c1O`, the Duration of action [2] is reported as “Brief duration”, the Speed of induction [6] is reported as “Immediate induction” and the HD50 [7] is reported as 20 mg/kg.

In the case of `Cc1cc(C(C)C)c(O)c(C(C)C)c1`, the LD50 [18] is reported as 80 mg/kg and the HD50 [1] is reported as 20 mg/kg.

In the case of `CCCCc1cccc(C(C)C)c1O`, the Duration of action [2] is reported as “Brief duration”, the Speed of induction [6] is reported as “Immediate” and the LD50 [8] is reported as 100 mg/kg. It also gave an HD50 [1] of 20 mg/kg.

For `CCCCC(C)c1cccc(C(C)C)c1O` (configuration not stated), the LD50 [19] was 100 mg/kg, the Speed of induction [4] was “Slow” and the Duration of action [9] was “Long”. For the same molecule, the HD50 [10] was 10 mg/kg.

Work on `CC(C)c1ccc(O)c(C(C)C)c1` yielded an HD50 [17] of 40 mg/kg and an LD50 [8] of 120 mg/kg.

`Cc1cc(C(C)(C)C)ccc1O` gave an LD50 [20] of 180 mg/kg and an HD50 [1] of 80 mg/kg.

For `Cc1cccc(C(C)C)c1O`, the Duration of action [2] was “Brief duration”, the Speed of induction [6] was “Immediate” and the HD50 [7] was 20 mg/kg. It also gave an LD50 [8] of 80 mg/kg.

With `CC(C)c1cccc(C2CC2)c1O` the Duration of action [2] was “Brief duration”, the Speed of induction [6] was “Immediate” and the LD50 [3] was 120 mg/kg. For the same molecule, the HD50 [7] was 20 mg/kg.

With `Cc1ccc(C(C)C)cc1O` [CARVACROL] the HD50 [14] was 30 mg/kg and the LD50 [18] was 80 mg/kg.

For `CCC(C)c1ccc(O)c(C(C)CC)c1` (configuration not stated), the HD50 [7] was 20 mg/kg and the LD50 [8] was 120 mg/kg.

For `C=CCC1(C(C)C#CCC)C(=O)NC(=O)N(C)C1=O` (configuration not stated), the Duration of action [2] was “Brief duration” and the Speed of induction [6] was “Immediate”.

In the case of `CCCc1cccc(C(C)CC)c1O` (configuration not stated), the HD50 [21] is reported as 10 mg/kg, the Duration of action [2] is reported as “Brief duration” and the Speed of induction [4] is reported as “Slow”. The LD50 [8] was 120 mg/kg.

For `CCCCc1cccc(C(C)CC)c1O` (configuration not stated), the Duration of action [12] was “Moderate”, the Speed of induction [13] was “Very slow” and the HD50 [7] was 20 mg/kg. The LD50 [8] was 120 mg/kg.

With `CCCC(C)c1ccccc1O` (configuration not stated) the HD50 [7] was 20 mg/kg and the LD50 [8] was 100 mg/kg.

With `CCOC(=O)c1cncn1[C@H](C)c1ccccc1` [ETOMIDATE] the Duration of action [2] was “Brief duration”, the Speed of induction [6] was “Immediate induction” and the HD50 [22] was 1 mg/kg. It also gave an LD50 [23] of 40 mg/kg.

`CC(C)c1ccccc1O` showed an HD50 [14] of 30 mg/kg and an LD50 [19] of 100 mg/kg.

In the case of `Cc1ccc(O)c(C)c1`, the HD50 [14] is reported as 30 mg/kg and the LD50 [19] is reported as 100 mg/kg.

With `CCCC(C)C1(CC)C(=O)NC(=S)NC1=O` (stereo in doubt; form 1) the Duration of action [2] was “Brief duration” and the Speed of induction [6] was “Immediate”.
